Results published in publication PMC2751816, “Functional, Non-Clonal IgM^a-Restricted B Cell Receptor Interactions with the HIV-1 Envelope gp41 Membrane Proximal External Region” (PLoS ONE, 2009).

Columns and labels:
[1] = tested on: BALB/c B cells (gp41 MPER tetramer binding); experiment: Cold inhibition of APC-labeled gp41 MPER tetramer binding by unlabeled tetramers; assay type: cell-based, mouse (BALB/c); conditions: unlabeled competitor tetramer pre-incubated; Fig. 4A,B; average of three experiments (4B)
Description: FACS staining of single cell suspensions (≥2×10^6) was conducted using pre-mixed combinations of fluorochrome-labeled Abs and APC-conjugated B cell tetramers at empirically-determined optimal concentrations. All Abs were from BD unless otherwise stated. Primary antibodies used were: PerCP anti-B220, FITC anti-IgD, FITC, PE or PE-Cy7 anti-IgM, PE anti-CD5, FITC anti-CD11b, PE-Cy7 anti-CD19, FITC anti-CD21, PE-Cy7 anti-CD23 (eBiosciences), and PE-Cy7 anti-CD93 (eBiosciences). Other reagents included biotinylated Abs against dump channel markers: Thy1 (Abcam), F4/80 (Abcam), CD11c, Gr-1, TER-119, and NK-1.1, secondary staining SA-Texas Red conjugate; v-amine live/dead violet dye (Molecular Probes), and Fc block (anti-CD16/32).
Staining was conducted at 4°C in several sequential steps in FACS staining buffer (1X PBS with 2% FCS, 0.1% NaN3), washing twice between steps. Cells were first incubated with v-amine live/dead dye for 15 min, then stained with APC-labeled tetramers for 30 min (and in some experiments, cold tetramer was incubated at 10 fold molar excess for 1 h, prior to staining with APC-labeled tetramers). Cells were then stained with Fc block, followed by incubation with combinations of primary Abs, and secondary staining with SA-Texas Red, each for 30 min. Data (≥2.5×10^5 events/sample) were acquired using an LSRII flow cytometer and Cell Quest software (BD Immunocytometry systems). FACS Analysis was performed using FlowJo software (Tree Star). For analysis, cells were gated in the following order: single cells were gated based on fsc height vs. fsc area+ssc height vs. ssc profiles, lymphocytes were gated on fsc and ssc profile, residual dead cells were excluded by negative gating with v-amine live/dead dye, and irrelevant non-B cells were excluded by negative gating with dump markers.

[2] = molecular target: gp41 MPER peptide (nominal 2F5 epitope of the HIV-1 gp41 membrane proximal external region), N-biotinylated (HIV-1); experiment: SPR; monomeric or F(ab)2 IgM fragments injected over biotinylated peptides anchored to a SA-coated sensor chip; BIAcore 3000, BIAevaluation 4.1

Row | Substance | inhibition of APC-labeled gp41 MPER tetramer binding (in words) [1] | Kd [2]
1 | DWEYSLWLSN [dsDNA tetramers, double-stranded DNA (dsDNA) mimic tetramer made from the R4A peptide […], reference compound] | minimal competition with gp41 MPER binding | 
2 | monomeric IgM^a fragment of the purified mouse TNP-KLH-specific IgM^a mAb, BD clone G155-228 (antibody) |  | 276 nM
